Experimental data as given in US8906909B2 (Curis, Inc., priority 2009, dated 2014).
pIC50: −log10 of the molar value. Read-outs that look alike come from different tables or passages of the source.

What was measured:
[1] = tested on: A375 cells; experiment: Cell proliferation assay Method B, A375; format: cell-based; conditions: Homo sapiens, A-375; Melanoma; A375; 72 hours, 0.5% fetal bovine serum, CellTiter-Glo; read-out: antiproliferative activity IC50, A375
Protocol: (§1) Cancer cell lines were plated at 5,000 to 10,000 per well in 96-well flat bottomed plates with various concentration of compounds. The cells were incubated with compounds for 72 hours in the presence of 0.5% of fetal bovine serum. Growth inhibition was accessed by adenosine triphosphate (ATP) content assay using Promega CellTiter-Glo kit. Promega CellTiter-Glo kit is an ATP monitoring system based on firefly luciferase. Briefly, 16 μl of mammalian cell lysis and substrate solution was added to 84 μl of culture medium per well to lyse the cells and stabilize the ATP. The mixture was shaken and incubated for 30 minutes and subsequently the luminescence was measured.

[2] = tested on: H1975 cells; experiment: Cell proliferation assay Method B, H1975; format: cell-based; conditions: Homo sapiens, NCI-H1975; NSCLC; H1975; 72 hours, 0.5% fetal bovine serum, CellTiter-Glo; read-out: antiproliferative activity IC50, H1975
Protocol: as §1

[3] = tested on: H1993 cells; experiment: Cell proliferation assay Method A (ATPlite), H1993; format: cell-based; conditions: Homo sapiens, NCI-H1993, 72 hours, read-out: antiproliferative activity IC50, H1993
Protocol: (§2) Cancer cell lines were plated at 5,000 to 10,000 per well in 96-well flat bottomed plates with various concentration of compounds. The cells were incubated with compounds for 72 hours in the presence of 0.5% of fetal bovine serum. Growth inhibition was accessed by adenosine triphosphate (ATP) content assay using Perkin Elmer ATPlite kit. ATPlite is an ATP monitoring system based on firefly luciferase. Briefly, 25 μl of mammalian cell lysis solution was added to 50 μl of phenol red-free culture medium per well to lyse the cells and stabilize the ATP. 25 μl of substrate solution was then added to the well and subsequently the luminescence was measured.

[4] = tested on: BT474 cells; experiment: Cell proliferation assay Method B, BT474; format: cell-based; conditions: Homo sapiens, BT-474, 72 hours, read-out: antiproliferative activity IC50, BT474
Protocol: as §1

[5] = tested on: Ca127 cells; experiment: Cell proliferation assay Method B, Ca127; format: cell-based; conditions: HNC; Ca127; 72 hours, 0.5% fetal bovine serum, CellTiter-Glo; read-out: antiproliferative activity IC50, Ca127
Protocol: as §1

[6] = tested on: MDA-MB-436 cells; experiment: Cell proliferation assay Method B, MDA-MB-436; format: cell-based; conditions: Homo sapiens, 72 hours, 0.5% fetal bovine serum, CellTiter-Glo, read-out: antiproliferative activity IC50, MDA-MB-436
Protocol: as §1

[7] = tested on: H1993 cells; experiment: Cell proliferation assay Method B, H1993; format: cell-based; conditions: Homo sapiens, NCI-H1993; NSCLC; H1993; 72 hours, 0.5% fetal bovine serum, CellTiter-Glo; read-out: antiproliferative activity IC50, H1993
Protocol: as §1

[8] = tested on: MDA-MB-231 cells; experiment: Cell proliferation assay Method B, MDA-MB-231; format: cell-based; conditions: Homo sapiens, 72 hours, 0.5% fetal bovine serum, CellTiter-Glo, read-out: antiproliferative activity IC50, MDA-MB-231
Protocol: as §1

[9] = tested on: Sk-Mel-28 cells; experiment: Cell proliferation assay Method A (ATPlite), Sk-Mel-28; format: cell-based; conditions: Homo sapiens, 72 hours, read-out: antiproliferative activity IC50, Sk-Mel-28
Protocol: as §2

[10] = tested on: HCT-118 cells; experiment: Cell proliferation assay Method A (ATPlite), HCT-118; format: cell-based; conditions: 72 hours, read-out: antiproliferative activity IC50, HCT-118
Protocol: as §2

[11] = tested on: MDA-MB-468 cells; experiment: Cell proliferation assay Method B, MDA-MB-468; format: cell-based; conditions: Homo sapiens, 72 hours, 0.5% fetal bovine serum, CellTiter-Glo, read-out: antiproliferative activity IC50, MDA-MB-468
Protocol: as §1

[12] = tested on: Sk-Mel-28 cells; experiment: Cell proliferation assay Method B, Sk-Mel-28; format: cell-based; conditions: Homo sapiens; Melanoma; Sk-Mel-28; 72 hours, 0.5% fetal bovine serum, CellTiter-Glo; read-out: antiproliferative activity IC50, Sk-Mel-28
Protocol: as §1

[13] = tested on: U87MG cells; experiment: Cell proliferation assay Method B, U87MG; format: cell-based; conditions: Homo sapiens, U-87 MG; Glioblastoma; U87MG; 72 hours, 0.5% fetal bovine serum, CellTiter-Glo; read-out: antiproliferative activity IC50, U87MG
Protocol: as §1

[14] = tested on: HCC1937 cells; experiment: Cell proliferation assay Method B, HCC1937; format: cell-based; conditions: Homo sapiens, 72 hours, 0.5% fetal bovine serum, CellTiter-Glo, read-out: antiproliferative activity IC50, HCC1937
Protocol: as §1

[15] = tested on: BT-474 cells; experiment: Cell proliferation assay Method A (ATPlite), BT-474; format: cell-based; conditions: Homo sapiens, 72 hours, read-out: antiproliferative activity IC50, BT-474
Protocol: as §2

[16] = tested on: HDACs (HeLa cell nuclear extracts); experiment: HDAC enzymatic activity, Biomol Color de Lys system; format: biochemical
How it was run: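 IC50 from sigmoidal dose-response fits of fluorescence (Ex 350–380, Em 440–460 nm). Compounds in DMSO dilution series incubated 1 h at 25 °C with HeLa nuclear extract HDACs and colorimetric substrate, pH 8.0 Tris/Cl buffer with NaCl, KCl, MgCl2, before developer termination.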

[17] = tested on: RPMI-8226 cells; experiment: Cell proliferation assay Method B, RPMI-8226; format: cell-based; conditions: Homo sapiens, Multiple Myeloma, 72 hours, 0.5% fetal bovine serum, CellTiter-Glo, read-out: antiproliferative activity IC50, RPMI-8226
Protocol: as §1

[18] = tested on: HCC1500 cells; experiment: Cell proliferation assay Method B, HCC1500; format: cell-based; conditions: Breast, 72 hours, read-out: antiproliferative activity IC50, HCC1500
Protocol: as §1

[19] = tested on: SKBr3 cells; experiment: Cell proliferation assay Method B, SKBr3; format: cell-based; conditions: Homo sapiens, SK-BR-3, Breast, 72 hours, read-out: antiproliferative activity IC50, SKBr3
Protocol: as §1

[20] = tested on: HCC1806 cells; experiment: Cell proliferation assay Method B, HCC1806; format: cell-based; conditions: Homo sapiens, Breast, 72 hours, read-out: antiproliferative activity IC50, HCC1806
Protocol: as §1

[21] = tested on: ZR-75-1 cells; experiment: Cell proliferation assay Method B, ZR-75-1; format: cell-based; conditions: Homo sapiens, Breast, 72 hours, read-out: antiproliferative activity IC50, ZR-75-1
Protocol: as §1

[22] = tested on: T47D cells; experiment: Cell proliferation assay Method B, T47D; format: cell-based; conditions: Homo sapiens, Breast, 72 hours, read-out: antiproliferative activity IC50, T47D
Protocol: as §1

[23] = tested on: MCF-7 cells; experiment: Cell proliferation assay Method B, MCF-7; format: cell-based; conditions: Homo sapiens, MCF7, Breast, 72 hours, read-out: antiproliferative activity IC50, MCF-7
Protocol: as §1

[24] = tested on: MDA-MB-361 cells; experiment: Cell proliferation assay Method B, MDA-MB-361; format: cell-based; conditions: Homo sapiens, Breast, 72 hours, read-out: antiproliferative activity IC50, MDA-MB-361
Protocol: as §1

[25] = BT474, 0.5% fetal bovine serum, CellTiter-Glo

pIC50 [1] | pIC50 [2] | pIC50 [3] | pIC50 [4, 25] | pIC50 [6] | pIC50 [7] | melting point | pIC50 [8] | pIC50 [10] | pIC50 [11] | pIC50 [13] | pIC50 [14] | pIC50 [15] | pIC50 [16] | pIC50 [17] | Compound | pIC50 [5] | pIC50 [9] | pIC50 [12] | also measured
7.00 to 8.00 | 7.00 to 8.00 | > 7.00 | 7.00 to 8.00 | 6.00 to 7.00 | – | 175 to 181 °C | – | > 7.00 | 6.00 to 7.00 | 7.00 to 8.00 | 7.00 to 8.00 | > 7.00 | > 7.00 | – | CN(Cc1cc2nc(-c3cnc(N)nc3)nc(N3CCOCC3)c2s1)c1ncc(C(=O)NO)cn1 [Compound 115, 2-(((2-(2-aminopyrimidin-5-yl)-4-morpholinothieno[3,2-d]pyrimidin-6-yl)methyl)(methyl)amino)-N-hydroxypyrimidine-5-carboxamide] | 7.00 to 8.00 | > 7.00 | 7.00 to 8.00 | –
– | – | – | – | – | – | 215 to 220 °C | – | – | – | – | – | – | > 7.00 | – | COc1ncc(-c2nc(N3CCOCC3)c3sc(CN(C)c4ncc(C(=O)NO)cn4)cc3n2)cn1 [Compound 261, N-Hydroxy-2-(((2-(2-methoxypyrimidin-5-yl)-4-morpholinothieno[3,2-d]pyrimidin-6-yl)methyl)(methyl)amino)pyrimidine-5-carboxamide] | – | – | – | pIC50 [18]: > 8.00; pIC50 [19]: 7.00 to 8.00; pIC50 ([4]; Breast, Method B): > 8.00; pIC50 [20]: > 8.00; pIC50 [21]: > 8.00; pIC50 [22]: > 8.00; pIC50 [23]: > 8.00; pIC50 [24]: > 8.00

The next lines start with the compound.

Compound | pIC50 [1] | pIC50 [2] | pIC50 [3] | pIC50 [4, 25] | pIC50 [6] | pIC50 [7] | melting point | pIC50 [8] | pIC50 [10] | pIC50 [11] | pIC50 [13] | pIC50 [14] | pIC50 [15] | pIC50 [16] | pIC50 [17] | pIC50 [5] | pIC50 [9] | pIC50 [12] | also measured
CN(Cc1cc2nc(-c3ccc(N)nc3)nc(N3CCOCC3)c2s1)c1ncc(C(=O)NO)cn1 [Compound 110, 2-(((2-(6-Aminopyridin-3-yl)-4-morpholinothieno[3,2-d]pyrimidin-6-yl)methyl)(methyl)amino)-N-hydroxypyrimidine-5-carboxamide] | 7.00 to 8.00 | 7.00 to 8.00 | > 7.00 | > 8.00 | 7.00 to 8.00 | 7.00 to 8.00 | 175 to 181 °C | 7.00 to 8.00 | > 7.00 | 7.00 to 8.00 | > 8.00 | 7.00 to 8.00 | > 7.00 | > 7.00 | – | 7.00 to 8.00 | > 7.00 | 7.00 to 8.00 | –
CN(Cc1cc2nc(-c3cccc(O)c3)nc(N3CCOCC3)c2s1)c1ncc(C(=O)NO)cn1 [Compound 132, N-hydroxy-2-(((2-(3-hydroxyphenyl)-4-morpholinothieno[3,2-d]pyrimidin-6-yl)methyl)(methyl)amino)pyrimidine-5-carboxamide] | 7.00 to 8.00 | 7.00 to 8.00 | > 7.00 | > 8.00 | 7.00 to 8.00 | 7.00 to 8.00 | 175 to 181 °C | – | > 7.00 | 6.00 to 7.00 | 7.00 to 8.00 | 6.00 to 7.00 | > 7.00 | > 7.00 | > 8.00 | 7.00 to 8.00 | > 7.00 | 7.00 to 8.00 | –
CC(=O)Nc1ccc(-c2nc(N3CCOCC3)c3sc(CN(C)c4ncc(C(=O)NO)cn4)cc3n2)cc1 [Compound 157, 2-(((2-(4-acetamidophenyl)-4-morpholinothieno[3,2-d]pyrimidin-6-yl)methyl)(methyl)amino)-N-hydroxypyrimidine-5-carboxamide] | 7.00 to 8.00 | 7.00 to 8.00 | – | > 8.00 | 7.00 to 8.00 | 7.00 to 8.00 | 228 to 230 °C | 7.00 to 8.00 | – | 7.00 to 8.00 | 7.00 to 8.00 | – | – | > 7.00 | 7.00 to 8.00 | 7.00 to 8.00 | – | 7.00 to 8.00 | –
